The record followed here is PubChem BioAssay AID493138 (Sanford-Burnham Center for Chemical Genomics, 2011).

The target in the experiment is Alkaline phosphatase, placental type (Homo sapiens) (UniProt P05187). Kind of experiment: PLAP enzyme inhibition by analogs, SAR follow-up, selectivity assay for human IAP inhibitor project, biochemical, human PLAP isozyme (AID 493138). The note with it: purified placental alkaline phosphatase, enzyme activity.

Active and inactive are the calls of the source. The rule behind the calls is not given here.

On to `CN(C)S(=O)(=O)c1cccc(NC(=S)NN=Cc2ccc(O)c(O)c2O)c1`, for which the IC50 (commonly the concentration that inhibits the measured activity by half) was > 100 µM (inactive). As for `Cc1cccc(NC(=S)NNC(=O)c2ccc3c(c2)OCO3)c1`, the IC50 was > 100 µM (inactive).

For the compound `Cc1cccc2sc(NNC(=O)c3ccc4c(c3)OCCO4)nc12`, the IC50 was > 100 µM (inactive). For `CCOc1cc(C=NNC(=S)NC2CCCCC2)ccc1O`, the IC50 was > 100 µM (inactive).

For `COc1cc(C=NNC(=S)Nc2cccc(S(=O)(=O)N(C)C)c2)ccc1O`, the IC50 was > 100 µM (inactive). As to `COC(=O)/C=C1/S/C(=N/NC(=O)c2ccccc2C)NC1=O`, the IC50 was > 100 µM (inactive). Turning to `COC(=O)C/C=N/N=C1\NC(=O)/C(=C/C(=O)O)S1`, the IC50 is > 100 µM (inactive). Turning to `O=S(=O)(c1ccc(NC(=S)N/N=C/c2ccc(O)c(O)c2)cc1)N1CCOCC1`, the IC50 is > 100 µM (inactive). With `Oc1ccc(-c2csc(Nc3ccc(F)cc3)n2)cc1O`, the IC50 is > 100 µM (inactive). With `CCOc1cc(C=N/N=C2/NC(=O)C(CC(=O)O)S2)ccc1OCc1ccccc1Cl` (stereo unspecified), the IC50 was > 100 µM (inactive). For `COc1ccc(C=Nn2c(=S)n(C)c3ccccc32)cc1OC` the value was > 100 µM (inactive); for `CCOc1ccc(Nc2nc(-c3ccc(O)c(O)c3)cs2)cc1`, > 100 µM (inactive). For `Cc1ccc2sc(NNC(=O)c3ccc4c(c3)OCCO4)nc2c1C`, the IC50 is > 100 µM (inactive). Consider `Cc1ccc2nc(NNC(=O)c3ccc4c(c3)OCCO4)sc2c1`, for which the IC50 was > 100 µM (inactive). For `Cc1c(Cl)cccc1Nc1nc(-c2ccc(O)c(O)c2)cs1`, the IC50 was > 100 µM (inactive). The value for `Cc1ccc(Nc2nc(-c3ccc(O)c(O)c3)cs2)cc1F` was > 100 µM (inactive); that for `O=S(=O)(Nc1ncccn1)c1ccc(NC(=S)NCCC(c2ccccc2)c2ccccc2)cc1` was > 100 µM (inactive). Turning to `COC(=O)/C=C1/S/C(=N/NC(=O)c2ccc(Cl)cc2Cl)NC1=O`, the IC50 was > 100 µM (inactive). Consider `NS(=O)(=O)c1ccc(Nc2nc(-c3ccc(O)cc3O)cs2)cc1`, for which the IC50 is > 100 µM (inactive). Consider `Cc1cccc(Nc2nc(-c3ccc(O)c(C(N)=O)c3)cs2)c1`, for which the IC50 was > 100 µM (inactive). Take `CCOc1cc(/C=N/N=C2\NC(=O)C(CC(=O)O)S2)ccc1O` (stereo unspecified): the IC50 is > 100 µM (inactive).

`CCc1ccccc1Nc1nc(-c2ccc(O)c(O)c2)cs1`: the IC50 was > 100 µM (inactive). On to `COc1ccc(NC(=S)NCCC(c2ccccc2)c2ccccc2)cc1`, for which the IC50 is > 100 µM (inactive).

Take `Cc1ccc(Nc2nc(-c3ccc(O)cc3O)cs2)cc1C`: the IC50 was > 100 µM (inactive). For `Cc1ccc(-c2ccc(/C=N/N=C3\NC(=O)C(CC(=O)O)S3)o2)c([N+](=O)[O-])c1` (stereo unspecified) the value was > 100 µM (inactive); for `Cc1ccc(Nc2nc(-c3ccc(O)cc3O)cs2)cc1`, > 100 µM (inactive). With `COC(=O)/C=C1\S/C(=N/N=C/CC(=O)OC)NC1=O`, the IC50 is > 100 µM (inactive).

With `Cn1c(=S)n(N=Cc2ccc3c(c2)OCO3)c2ccccc21`, the IC50 was > 100 µM (inactive).

As for `Oc1ccc(Nc2nc(-c3ccc(O)c(O)c3)cs2)cc1`, the IC50 is > 100 µM (inactive).

In the case of `CC(=NNC(=S)Nc1ccccc1)c1ccc2c(c1)OCO2`, the IC50 was > 100 µM (inactive).

For `Cc1ccc(Nc2nc(-c3ccc(O)c(O)c3)cs2)cc1`, the IC50 is > 100 µM (inactive). Regarding `COc1ccc(/C=N/N=C2/NC(=O)C(CC(=O)O)S2)cc1OC` (stereo unspecified), the IC50 was > 100 µM (inactive).

Regarding `CCN(CC)S(=O)(=O)c1ccc(-c2csc(=Nc3cccc4ccccc34)n2C)cc1`, the IC50 was > 100 µM (inactive). For `Cc1cc(=O)oc2cc(NC(=S)NCCC(c3ccccc3)c3ccccc3)ccc12`, the IC50 is > 100 µM (inactive). For `COc1cc(/C=N/N=C2/SCC(=O)N2c2ccc(O)cc2)ccc1O` the value was > 100 µM (inactive); for `Cc1ccc(Nc2nc(-c3ccc(O)c(C(N)=O)c3)cs2)cc1`, > 100 µM (inactive). Regarding `Oc1ccc(-c2csc(Nc3ccccc3)n2)c(O)c1`, the IC50 is > 100 µM (inactive). Consider `COc1cc(/C=N/N=C2\NC(=O)C(CC(=O)O)S2)cc(OC)c1OC` (stereo unspecified), for which the IC50 was > 100 µM (inactive). In the case of `O=[N+]([O-])c1ccccc1NC(=S)N/N=C/c1ccc(O)c(O)c1O`, the IC50 is > 100 µM (inactive). In the case of `Cc1ccc(C)c(Nc2nc(-c3ccc(O)cc3O)cs2)c1`, the IC50 is > 100 µM (inactive). For `N#CCCn1cc(/C=N/N=C2/NC(=O)C(CC(=O)O)S2)c(-c2ccc(F)cc2)n1` (stereo unspecified) the value was > 100 µM (inactive); for `COC(=O)/C=C1/S/C(=N/NC(=O)c2ccc(OC)cc2)NC1=O`, > 100 µM (inactive); for `O=[N+]([O-])c1ccc(NC(=S)NCCC(c2ccccc2)c2ccccc2)cc1`, > 100 µM (inactive).

As for `O=S(=O)(c1ccc(NC(=S)N/N=C/c2ccc(O)c(O)c2O)cc1)N1CCOCC1`, the IC50 is > 100 µM (inactive). With `COc1cc([N+](=O)[O-])ccc1NC(=S)NCCC(c1ccccc1)c1ccccc1`, the IC50 is > 100 µM (inactive). The value for `FC(F)(F)c1cccc(NC(=S)NCCC(c2ccccc2)c2ccccc2)c1` was > 100 µM (inactive); that for `COC(=O)/C=C1/S/C(=N/NC(=O)c2ccccc2OC)NC1=O` was > 100 µM (inactive). Take `COC(=O)/C=C1\SC(N=Nc2c(O)[nH]c3ccccc23)=NC1=O`: the IC50 is > 100 µM (inactive). Take `COc1cc(C=NNC(=S)Nc2cccc(C(=O)O)c2)ccc1O`: the IC50 is > 100 µM (inactive).

Consider `COc1ccc(C(=O)NNC(=S)NC2CCCCC2)cc1OC`, for which the IC50 is > 100 µM (inactive). For `COc1ccc(C=NN=C2SC(CC(=O)O)C(=O)N2c2ccc(O)cc2)cc1` (stereo unspecified) the value was > 100 µM (inactive). Regarding `Cc1ccc(Nc2nc(-c3ccc(O)cc3O)cs2)cc1F`, the IC50 was > 100 µM (inactive). Consider `COc1cc(C=NN=C2SC(CC(=O)O)C(=O)N2c2ccc(O)cc2)ccc1O` (stereo unspecified), for which the IC50 is > 100 µM (inactive). Turning to `COc1ccc(Cl)cc1Nc1nc(-c2ccc(O)c(O)c2)cs1`, the IC50 is > 100 µM (inactive). In the case of `Oc1ccc(-c2csc(Nc3cccc4ccccc34)n2)cc1O`, the IC50 was > 100 µM (inactive). For `COc1cc(C(=O)NNC(=S)Nc2ccc(S(N)(=O)=O)cc2)cc(OC)c1OC`, the IC50 is > 100 µM (inactive). Turning to `Cc1cccc(Nc2nc(-c3ccc(O)c(O)c3)cs2)c1`, the IC50 was > 100 µM (inactive).

With `Cc1cccc(C)c1NC(=S)N/N=C/c1ccc(O)c(O)c1O`, the IC50 was > 100 µM (inactive). Regarding `NS(=O)(=O)c1ccc(Nc2nc(-c3ccc(O)c(O)c3)cs2)cc1`, the IC50 is 33.8 µM. The value for `Cc1cc(C)cc(Nc2nc(-c3ccc(O)cc3O)cs2)c1` was > 100 µM (inactive); that for `COc1cccc(Nc2nc(-c3ccc(O)cc3)cs2)c1` was > 100 µM (inactive); that for `COc1ccc(/C=N/N=C2\NC(=O)C(CC(=O)O)S2)c(OC)c1` (stereo unspecified) was > 100 µM (inactive). For the compound `COc1cc([N+](=O)[O-])ccc1NC(=S)NNC(=O)c1ccc2c(c1)OCO2`, the IC50 was > 100 µM (inactive).

On to `O=C(O)CC1S/C(=N/N=C/c2ccco2)NC1=O` (stereo unspecified), for which the IC50 is > 100 µM (inactive). For `Cc1ccc(Cl)cc1Nc1nc(-c2ccc(O)c(O)c2)cs1` the value was > 100 µM (inactive); for `COc1ccc(C=NNC(=S)Nc2ccccc2[N+](=O)[O-])cc1O`, > 100 µM (inactive). For the compound `Cc1cccc(NC(=S)NN=Cc2ccc3c(c2)OCO3)c1`, the IC50 is > 100 µM (inactive). For `S=C(NCCC(c1ccccc1)c1ccccc1)Nc1ccc(Cl)cc1Cl`, the IC50 was > 100 µM (inactive). With `COc1ccc(-c2csc(Nc3cccc4ccccc34)n2)cc1F`, the IC50 was > 100 µM (inactive). As to `COC(=O)/C=C1\S/C(=N/N=C/c2ccc(Cl)cc2)NC1=O`, the IC50 is > 100 µM (inactive).

With `COc1ccc(-c2csc(Nc3cccc4ccccc34)n2)cc1`, the IC50 is > 100 µM (inactive).

As for `O=[N+]([O-])c1ccccc1NC(=S)NN=Cc1ccc(O)c(O)c1`, the IC50 was 8.24 µM.

With `COC(=O)/C=C1/S/C(=N/N=Cc2ccc(N(C)C)cc2)NC1=O`, the IC50 is > 100 µM (inactive). Take `COc1cc(C=NNC(=S)Nc2cccc(S(=O)(=O)N(C)C)c2)cc(OC)c1O`: the IC50 was > 100 µM (inactive). As for `CC(C)(C)c1ccc(/C=N/N=C2\NC(=O)C(CC(=O)O)S2)cc1` (stereo unspecified), the IC50 is > 100 µM (inactive). As to `COC(=O)/C=C1/S/C(=N/NC(=O)c2ccccc2)NC1=O`, the IC50 is > 100 µM (inactive).
